Laboratory results reported in patent US20230303570A1, “KINASE INHIBITORS AND USES THEREOF” (ABM Therapeutics Corporation, priority 2020, published 2023).

Target: HPK1 (MAP4K1) (Homo sapiens, UniProt Q92918)
Assay: HPK1 (MAP4K1) kinase Lantha screen assay
Format: biochemical
Experimental: The effect of the compounds on the activity of HPK1 (MAP4K1) kinase were assessed by Lantha screen assay. • 1. 1×kinase buffer was prepared (50 mM HEPES, pH 7.5, 10 mM MgCl2, 4 mM DT • 2. Compound and assay plates preparation: • 2-1) The compound was diluted to 100× of the final desired highest inhibitor concentration in reaction by 100% DMSO. For example, if a compound was tested at […], then a solution at 500 µM in DMSO was prepared in this step. • 2-2) For each tested compound, the compound was transferred in tubes to one well on a 96-well storage plate and serially diluted by transferring […] of 100% DMSO in the next well and so forth for a total of 6 concentrations. • 2-3) 100 μl of 100% DMSO were added to two empty wells to serve as no compound control and no enzyme control in the same 96-well plate. The resulting plate was labeled as the source plate. • 2-4) 40 μl of compound from source plate were transferred to a new 384-well Echo plate as the intermediate plate. 100 nl of each well from the 384-well Echo plate were transferred to a 384-well assay plate in duplicates. For example, A1 of the 384-well Echo plate was transferred to A1 and A2 of the 384-well plate. A2 of the 384-well Echo plate was transferred to A3 and A4 of the 384-well plate, and so on; • 3. Kinase reaction: a solution of MAP4K1 in 1× kinase buffer at 2-fold the final concentration of each reagent in the assay was prepared. 5 μl of kinase solution was added to each well of the assay plate, except for control wells without enzyme (add 5 μl of 1× kinase buffer instead). The plate was then shaken, then incubated at room temperature for 10 min. A substrate solution of Fluorescein-PKC and ATP in 1× kinase reaction buffer at 2-fold of the final concentration of each reagent desired in the assay was prepared. 5 μl of substrate solution was added to each well of the assay plate to start reaction. The plate was shaken, then covered, and incubated at room temperature for 90 minutes.
Kinase detection: detection solution of 2-fold of final concentration in Antibody Dilution Buffer was prepared. 10 μl of detection solution was added to each well of the assay plate to stop the reaction. The mixtures were mixed briefly with Centrifuge and incubated at room temperature 60 minutes before reading on a plate reader for fluorescence. Data was collected on Envision with excitation at 340 nm and emission at 520 nm and 495 nm.

Chain of HPK1 (MAP4K1) (Q92918 whole entry, species assumed): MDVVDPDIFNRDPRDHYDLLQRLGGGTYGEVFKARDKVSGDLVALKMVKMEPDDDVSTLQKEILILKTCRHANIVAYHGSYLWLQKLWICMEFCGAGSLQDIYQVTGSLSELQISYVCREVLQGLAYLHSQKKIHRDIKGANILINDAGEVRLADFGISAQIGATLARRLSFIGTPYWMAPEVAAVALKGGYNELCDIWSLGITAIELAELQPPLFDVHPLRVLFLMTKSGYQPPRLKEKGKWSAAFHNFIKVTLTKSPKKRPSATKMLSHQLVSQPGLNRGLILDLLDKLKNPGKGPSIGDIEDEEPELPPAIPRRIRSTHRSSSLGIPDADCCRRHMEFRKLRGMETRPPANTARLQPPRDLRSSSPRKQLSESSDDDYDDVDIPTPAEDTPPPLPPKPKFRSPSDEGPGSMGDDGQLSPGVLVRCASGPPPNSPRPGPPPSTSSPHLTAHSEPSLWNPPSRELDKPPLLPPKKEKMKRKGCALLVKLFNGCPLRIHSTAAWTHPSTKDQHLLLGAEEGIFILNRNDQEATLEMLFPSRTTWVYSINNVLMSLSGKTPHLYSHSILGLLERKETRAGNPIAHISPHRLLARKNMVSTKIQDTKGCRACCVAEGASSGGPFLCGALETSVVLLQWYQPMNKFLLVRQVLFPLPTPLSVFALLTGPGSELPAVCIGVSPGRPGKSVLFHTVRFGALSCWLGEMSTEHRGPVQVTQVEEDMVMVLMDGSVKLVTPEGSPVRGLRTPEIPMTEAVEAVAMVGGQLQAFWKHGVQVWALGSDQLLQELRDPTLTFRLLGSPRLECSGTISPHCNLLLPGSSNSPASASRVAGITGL

| SMILES | IC50 |
| --- | --- |
| Cc1cc(F)c(NC(=O)c2cccc(C(F)(F)F)n2)cc1C1=Cc2cnc(NC3COC3)nc2N2CCN=C12 [Compound 179, N-(2-fluoro-4-methyl-5-(2-(oxetan-3-ylamino)-8,9-dihydroimidazo[1′,2′:1,6]pyrido[2,3-d]pyrimidin-6-yl)phenyl)-6-(trifluoromethyl)picolinamide] | 100 to 10000 nM |
| CNc1ncc2c(n1)N1CCN=C1C(c1cc(NC(=O)C3CCNC(C(F)(F)F)C3)ccc1C)=C2 (stereo not drawn) [Compound 155, N-(4-methyl-3-(2-(methylamino)-8,9-dihydroimidazo[1′,2′:1,6]pyrido[2,3-d]pyrimidin-6-yl)phenyl)-2-(trifluoromethyl)piperidine-4-carboxamide] | > 10000 nM |
| CNc1ncc2c(n1)N1CCN=C1C(c1cc(NC(=O)c3cc(C(F)(F)F)cc(-n4cnc(C)c4)n3)ccc1C)=C2 [Compound 157, 6-(4-methyl-1H-imidazol-1-yl)-N-(4-methyl-3-(2-(methylamino)-8,9-dihydroimidazo[1′,2′:1,6]pyrido[2,3-d]pyrimidin-6-yl)phenyl)-4-(trifluoromethyl)picolinamide] | 100 to 10000 nM |
| CC(=O)Nc1ncc2c(n1)N1CCN=C1C(c1cc(NC(=O)c3cc(C(F)(F)F)ccn3)ccc1C)=C2 [Compound 118, N-(3-(2-acetamido-8,9-dihydroimidazo[1′,2′:1,6]pyrido[2,3-d]pyrimidin-6-yl)-4-methylphenyl)-4-(trifluoromethyl)picolinamide] | 100 to 10000 nM |
| Cc1cc(F)c(NC(=O)c2cccc(C(C)(C)C#N)c2)cc1C1=Cc2cnc(NC3COC3)nc2N2CCN=C12 [Compound 180, 3-(2-cyanopropan-2-yl)-N-(2-fluoro-4-methyl-5-(2-(oxetan-3-ylamino)-8,9-dihydroimidazo[1′,2′:1,6]pyrido[2,3-d]pyrimidin-6-yl)phenyl)benzamide] | < 100 nM |
| CNc1ncc2c(n1)N1CCN=C1C(c1cc(NC(=O)c3cc(C(F)(F)F)ccn3)ccc1C)=N2 [Compound 124, N-(4-methyl-3-(2-(methylamino)-8,9-dihydroimidazo[2,1-h]pteridin-6-yl)phenyl)-4-(trifluoromethyl)picolinamide] | 100 to 10000 nM |
| CNc1ncc2c(n1)N1CCN=C1C(c1cc(NC(=O)c3cc(C#N)ccn3)ccc1C)=C2 [Compound 159, 4-cyano-N-(4-methyl-3-(2-(methylamino)-8,9-dihydroimidazo[1′,2′:1,6]pyrido[2,3-d]pyrimidin-6-yl)phenyl)picolinamide] | 100 to 10000 nM |
| CNc1ncc2c(n1)N1CCN=C1C(c1cc(NC(=O)C3CC(C(F)(F)F)CCN3)ccc1C)=C2 (stereo not drawn) [Compound 154, N-(4-methyl-3-(2-(methylamino)-8,9-dihydroimidazo[1′,2′:1,6]pyrido[2,3-d]pyrimidin-6-yl)phenyl)-4-(trifluoromethyl)piperidine-2-carboxamide] | > 10000 nM |
| CNc1ncc2c(n1)N1C(=NCC13CCCC3)C(c1cc(NC(=O)c3cc(C(F)(F)F)ccn3)ccc1C)=C2 [Compound 131, N-(4-methyl-3-(2′-(methylamino)-8′H-spiro[cyclopentane-1,9′-imidazo[1′,2′:1,6]pyrido[2,3-d]pyrimidin]-6′-yl)phenyl)-4-(trifluoromethyl)picolinamide] | < 100 nM |
| Cc1ccc(Nc2ncc3c(n2)N2CCN=C2C(c2ccccc2Cl)=C3)cn1 [Compound 101, 6-(2-chlorophenyl)-N-(6-methylpyridin-3-yl)-8,9-dihydroimidazo[1′,2′:1,6]pyrido[2,3-d]pyrimidin-2-amine] | 100 to 10000 nM |
| CNc1ncc2c(n1)N1CCN=C1C(c1cc(NC(=O)c3nccc(C(F)(F)F)c3Cl)ccc1C)=C2 [Compound 152, 3-chloro-N-(4-methyl-3-(2-(methylamino)-8,9-dihydroimidazo[1′,2′:1,6]pyrido[2,3-d]pyrimidin-6-yl)phenyl)-4-(trifluoromethyl)picolinamide] | 100 to 10000 nM |
| CNc1ncc2c(n1)N1CCN=C1C(c1cc(NC(=O)c3cncc(Cl)c3)ccc1C)=C2 [Compound 160, 5-chloro-N-(4-methyl-3-(2-(methylamino)-8,9-dihydroimidazo[1′,2′:1,6]pyrido[2,3-d]pyrimidin-6-yl)phenyl)nicotinamide] | > 10000 nM |
| CNc1ncc2c(n1)N1C[C@H](C)N=C1C(c1cc(NC(=O)c3cc(C(F)(F)F)ccn3)ccc1C)=C2 [Compound 126, (S)—N-(4-methyl-3-(8-methyl-2-(methylamino)-8,9-dihydroimidazo[1′,2′:1,6]pyrido[2,3-d]pyrimidin-6-yl)phenyl)-4-(trifluoromethyl)picolinamide] | 100 to 10000 nM |

Results, then the compound that gave them:

| IC50 | SMILES |
| --- | --- |
| < 100 nM | Cc1cc(Nc2ncc3c(n2)N2CCN=C2C(c2cc(NC(=O)c4cc(C(F)(F)F)ccn4)ccc2C)=C3)ccn1 [Compound 212, N-(4-methyl-3-(2-((2-methylpyridin-4-yl)amino)-8,9-dihydroimidazo[1′,2′:1,6]pyrido[2,3-d]pyrimidin-6-yl)phenyl)-4-(trifluoromethyl)picolinamide] |
| < 100 nM | COc1ccc(Nc2ncc3c(n2)N2CCN=C2C(c2cc(NC(=O)c4cc(C(F)(F)F)ccn4)ccc2C)=C3)cn1 [Compound 221, N-(3-(2-((6-methoxypyridin-3-yl)amino)-8,9-dihydroimidazo[1′,2′:1,6]pyrido[2,3-d]pyrimidin-6-yl)-4-methylphenyl)-4-(trifluoromethyl)picolinamide] |
| < 100 nM | Cc1cnc(Nc2ncc3c(n2)N2CCN=C2C(c2cc(NC(=O)c4cc(C(F)(F)F)ccn4)ccc2C)=C3)s1 [Compound 232, N-(4-methyl-3-(2-((5-methylthiazol-2-yl)amino)-8,9-dihydroimidazo[1′,2′:1,6]pyrido[2,3-d]pyrimidin-6-yl)phenyl)-4-(trifluoromethyl)picolinamide] |
| 100 to 10000 nM | CNc1ncc2c(n1)N1CCN=C1C(c1cc(NC(=O)c3cc(C(F)(F)F)ccn3)cnc1C)=C2 [Compound 191, N-(6-methyl-5-(2-(methylamino)-8,9-dihydroimidazo[1′,2′:1,6]pyrido[2,3-d]pyrimidin-6-yl)pyridin-3-yl)-4-(trifluoromethyl)picolinamide] |
| < 100 nM | Cc1ccc(NC(=O)c2cc(C(F)(F)F)ccn2)cc1C1=Cc2cnc(Nc3cccnc3C)nc2N2CCN=C12 [Compound 209, N-(4-methyl-3-(2-((2-methylpyridin-3-yl)amino)-8,9-dihydroimidazo[1′,2′:1,6]pyrido[2,3-d]pyrimidin-6-yl)phenyl)-4-(trifluoromethyl)picolinamide] |
| 100 to 10000 nM | CNc1ncc2c(n1)N1CCN=C1C(c1cc(NC(=O)c3cccc(C(F)(F)F)c3)ncc1C)=C2 [Compound 190, N-(5-methyl-4-(2-(methylamino)-8,9-dihydroimidazo[1′,2′:1,6]pyrido[2,3-d]pyrimidin-6-yl)pyridin-2-yl)-3-(trifluoromethyl)benzamide] |
| < 100 nM | Cc1ccc(Nc2ncc3c(n2)N2CCN=C2C(c2cc(NC(=O)c4cccc(C(F)(F)F)c4)ccc2C)=C3)cn1 [Compound 207, N-(4-methyl-3-(2-((6-methylpyridin-3-yl)amino)-8,9-dihydroimidazo[1′,2′:1,6]pyrido[2,3-d]pyrimidin-6-yl)phenyl)-3-(trifluoromethyl)benzamide] |
| > 10000 nM | CNc1ncc2c(n1)N1CCN=C1C(c1cc(NC(=O)C3(C(=O)Nc4ccc(F)cc4)CC3)c(F)cc1C)=C2 [Compound 343, N-(2-fluoro-4-methyl-5-(2-(methylamino)-8,9-dihydroimidazo[1′,2′:1,6]pyrido[2,3-d]pyrimidin-6-yl)phenyl)-N-(4-fluorophenyl)cyclopropane-1,1-dicarboxamide] |
| > 10000 nM | CNc1ncc2c(n1)N1CCN=C1C(c1nc(NC(=O)c3cc(C(F)(F)F)ccn3)ccc1C)=C2 [Compound 192, N-(5-methyl-6-(2-(methylamino)-8,9-dihydroimidazo[1′,2′:1,6]pyrido[2,3-d]pyrimidin-6-yl)pyridin-2-yl)-4-(trifluoromethyl)picolinamide] |
| 100 to 10000 nM | Cc1ccc(NC(=O)c2cc(C(F)(F)F)ccn2)cc1C1=Cc2cnc(Nc3ccnn3C)nc2N2CCN=C12 [Compound 235, N-(4-methyl-3-(2-((1-methyl-1H-pyrazol-5-yl)amino)-8,9-dihydroimidazo[1′,2′:1,6]pyrido[2,3-d]pyrimidin-6-yl)phenyl)-4-(trifluoromethyl)picolinamide] |
| 100 to 10000 nM | Cc1ccc(NC(=O)c2cc(C(F)(F)F)ccn2)cc1C1=Cc2cnc(Nc3nnn[nH]3)nc2N2CCN=C12 [Compound 239, N-(3-(2-((1H-tetrazol-5-yl)amino)-8,9-dihydroimidazo[1′,2′:1,6]pyrido[2,3-d]pyrimidin-6-yl)-4-methylphenyl)-4-(trifluoromethyl)picolinamide] |
